Test results: patent US6552069B1, “3-methyl-chroman and -thiochroman derivatives” (Chugai Seiyaku Kabushiki Kaisha, priority 1999, dated 2003)

Tested on: estradiol-induced increase in uterine weight
Assay: Anti-estrogenic activity (oral administration) in ovariectomized mice administered with 17β-estradiol
Format: in vivo
Details: 10 mg/kg p.o. once a day for 3 days, suspended in 5% arabic gum, ovariectomized ICR mice given 17β-estradiol-benzoate 0.1 μg/mouse s.c. for 3 days, uteri weighed 24 hours after last administration
Description: Test compounds were assayed for their oral anti-estrogenic activity in the following manner. In this experiment, the compounds prepared in Examples mentioned above were used as test compounds. As control compounds, the following three were used: a compound described in Example 7 of WO98/25916; ZM; and a compound corresponding to general formula (1) of the present invention, provided that R2 was a C2 perfluoroalkyl group (perfluoroethyl), i.e., 10-[(3RS,4RS)-7-hydroxy-3-(4-hydroxyphenyl)-3-methylthiochroman-4-yl]-2-(4,4,5,5,5-pentafluoropentyl)decanoic acid, which had been synthesized according to Reaction Schemes 1 to 7 mentioned above.
In this experiment, each of the test and control compounds was suspended in 5% arabic gum solution and orally administered for 3 days on a once-a-day basis. After 24 hours from the last administration, the test animals were sacrificed and the uteri were removed and weighed.

Structure (SMILES): C[C@@]1(c2ccc(O)cc2)CSc2cc(O)ccc2[C@@H]1CCCCCCCCC(CCCC(F)(F)C(F)(F)F)C(=O)O (mixture of isomers) [10-[(3RS,4RS)-7-hydroxy-3-(4-hydroxyphenyl)-3-methylthiochroman-4-yl]-2-(4,4,5,5,5-pentafluoropentyl)decanoic acid, reference compound]
- inhibition in vivo at 10 mg/kg: 75%

Structure (SMILES): C[C@@]1(c2ccc(O)cc2)CSc2cc(O)ccc2[C@@H]1CCCCCCCCC(CCC(F)(F)C(F)(F)C(F)(F)C(F)(F)F)C(=O)O (mixture of isomers) [Example 8, 10-[(3RS,4RS)-7-hydroxy-3-(4-hydroxyphenyl)-3-methylthiochroman-4-yl]-2-(3,3,4,4,5,5,6,6,6-nonafluorohexyl)decanoic acid]
- inhibition in vivo at 10 mg/kg: 93%

Structure (SMILES): C[C@@]1(c2ccc(O)cc2)CSc2cc(O)ccc2[C@@H]1CCCCCCCCC(CCCC(F)(F)C(F)(F)C(F)(F)C(F)(F)F)C(=O)O (mixture of isomers) [Example 9, 10-[(3RS,4RS)-7-hydroxy-3-(4-hydroxyphenyl)-3-methylthiochroman-4-yl]-2-(4,4,5,5,6,6,7,7,7-nonafluoroheptyl)decanoic acid]
- inhibition in vivo at 10 mg/kg: 93%

Structure (SMILES): C[C@@]1(c2ccc(O)cc2)CSc2cc(O)ccc2[C@@H]1CCCCCCCCCC(CCC(F)(F)C(F)(F)C(F)(F)C(F)(F)F)C(=O)O (mixture of isomers) [Example 11, 11-[(3RS,4RS)-7-hydroxy-3-(4-hydroxyphenyl)-3-methylthiochroman-4-yl]-2-(3,3,4,4,5,5,6,6,6-nonafluorohexyl)undecanoic acid]
- inhibition in vivo at 10 mg/kg: 85%

Structure (SMILES): C[C@@]1(c2ccc(O)cc2)CSc2cc(O)ccc2[C@@H]1CCCCCCCCCC(CCCC(F)(F)C(F)(F)C(F)(F)C(F)(F)F)C(=O)O (mixture of isomers) [Example 12, 11-[(3RS,4RS)-7-hydroxy-3-(4-hydroxyphenyl)-3-methylthiochroman-4-yl]-2-(4,4,5,5,6,6,7,7,7-nonafluoroheptyl)undecanoic acid]
- inhibition in vivo at 10 mg/kg: 86%

Structure (SMILES): C[C@@]1(c2ccc(O)cc2)COc2cc(O)ccc2[C@@H]1CCCCCCCCC(CCC(F)(F)C(F)(F)C(F)(F)C(F)(F)F)C(=O)O (mixture of isomers) [Example 13, 10-[(3RS,4RS)-7-hydroxy-3-(4-hydroxyphenyl)-3-methylchroman-4-yl]-2-(3,3,4,4,5,5,6,6,6-nonafluorohexyl)decanoic acid]
- inhibition in vivo at 10 mg/kg: 84%

Structure (SMILES): C[C@@]1(c2ccc(O)cc2)COc2cc(O)ccc2[C@@H]1CCCCCCCCCC(CCC(F)(F)C(F)(F)C(F)(F)C(F)(F)F)C(=O)O (mixture of isomers) [Example 14, 11-[(3RS,4RS)-7-hydroxy-3-(4-hydroxyphenyl)-3-methylchroman-4-yl]-2-(3,3,4,4,5,5,6,6,6-nonafluorohexyl)undecanoic acid]
- inhibition in vivo at 10 mg/kg: 88%

Structure (SMILES): C[C@@]1(c2ccc(O)cc2)COc2cc(O)ccc2[C@@H]1CCCCCCCCC(CCCC(F)(F)C(F)(F)C(F)(F)C(F)(F)F)C(=O)O (mixture of isomers) [Example 15, 10-[(3RS,4RS)-7-hydroxy-3-(4-hydroxyphenyl)-3-methylchroman-4-yl]-2-(4,4,5,5,6,6,7,7,7-nonafluoroheptyl)decanoic acid]
- inhibition in vivo at 10 mg/kg: 92%

Structure (SMILES): C[C@@]1(c2ccc(O)cc2)COc2cc(O)ccc2[C@@H]1CCCCCCCCCC(CCCC(F)(F)C(F)(F)C(F)(F)C(F)(F)F)C(=O)O (mixture of isomers) [Example 16, 11-[(3RS,4RS)-7-hydroxy-3-(4-hydroxyphenyl)-3-methylchroman-4-yl]-2-(4,4,5,5,6,6,7,7,7-nonafluoroheptyl)undecanoic acid]
- inhibition in vivo at 10 mg/kg: 91%

Structure (SMILES): C[C@@]1(c2ccc(O)cc2)CSc2cc(O)ccc2[C@@H]1CCCCCCCCC(CCC(F)(F)C(F)(F)C(F)(F)C(F)(F)F)C(=O)O (single isomer, unassigned) [Example 21, Peak 1]
- inhibition in vivo at 10 mg/kg: 89%

Structure (SMILES): CC1(c2ccc(O)cc2)COc2cc(O)ccc2C1CCCCCCCCCC(CCC(F)(F)C(F)(F)C(F)(F)C(F)(F)F)C(=O)O (single isomer, unassigned) [Example 24, Peak 1, 11-[7-hydroxy-3-(4-hydroxyphenyl)-3-methylchroman-4-yl]-2-(3,3,4,4,5,5,6,6,6-nonafluorohexyl)undecanoic acid]
- inhibition in vivo at 10 mg/kg: 85%
